Measured values from patent publication US8124360B2, “Use of a T1R2 nucleic acid sequence to identify tastants” (Givaudan S.A., priority 2006, dated 2012).
Residues, ends and D or L forms follow the SMILES beside them.

Experiments:
T1R2 monomer [1] = biological target: T1, T1R2 monomer (Homo sapiens, UniProt Q8TE23); experiment: Fluo-4 calcium assay, HEK293T/G16gust44 cells transiently transfected with T1R2 monomer; format: cell-based
T1 construct: expressed in transfected cells; host or cells: HEK293T cells stably expressing G16gust44
T1 sequence (Q8TE23 20-839): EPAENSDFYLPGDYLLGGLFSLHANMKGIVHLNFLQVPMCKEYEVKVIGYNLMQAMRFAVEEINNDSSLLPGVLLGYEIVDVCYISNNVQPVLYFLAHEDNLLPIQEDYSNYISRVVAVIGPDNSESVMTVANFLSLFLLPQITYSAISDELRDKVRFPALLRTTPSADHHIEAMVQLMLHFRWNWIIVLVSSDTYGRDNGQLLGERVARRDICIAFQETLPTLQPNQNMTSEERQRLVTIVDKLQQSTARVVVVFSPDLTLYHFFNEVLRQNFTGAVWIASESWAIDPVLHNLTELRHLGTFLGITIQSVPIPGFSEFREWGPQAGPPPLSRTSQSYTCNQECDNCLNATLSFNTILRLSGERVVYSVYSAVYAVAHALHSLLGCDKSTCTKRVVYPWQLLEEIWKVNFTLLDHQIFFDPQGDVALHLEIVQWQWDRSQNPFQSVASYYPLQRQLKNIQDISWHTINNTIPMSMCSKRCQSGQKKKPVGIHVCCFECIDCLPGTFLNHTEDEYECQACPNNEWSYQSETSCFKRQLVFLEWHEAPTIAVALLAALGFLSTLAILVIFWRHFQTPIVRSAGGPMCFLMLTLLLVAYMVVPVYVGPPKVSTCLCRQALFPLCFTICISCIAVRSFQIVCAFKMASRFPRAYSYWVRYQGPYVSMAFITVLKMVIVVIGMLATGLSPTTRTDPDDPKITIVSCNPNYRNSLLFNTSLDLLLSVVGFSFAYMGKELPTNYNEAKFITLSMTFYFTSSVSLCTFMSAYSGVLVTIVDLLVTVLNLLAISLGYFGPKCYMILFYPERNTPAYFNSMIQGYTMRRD
Excerpt: (§1) All examples use the human receptors.
(§2) HEK293 cells stably expressing G alpha 16-gustducin 44 and transfected as described in example 2, 3 or 4 were used as host cells.
(§3) To form a T1R2 vector construct, cDNA fragments containing the entire protein coding sequences for human T1R2 and T1R3 were isolated from a human fungiform cDNA library, fully sequenced and then subcloned into pcDNA3.1 (Invitrogen).

T1R2/T1R3 dimer = biological target: T2, T1R2/T1R3 dimer (Homo sapiens, UniProt Q7RTX0+Q8TE23); experiment: Fluo-4 calcium assay, HEK293T/G16gust44 cells transiently transfected with T1R2 and T1R3; format: cell-based
T2 construct: expressed in transfected cells; host or cells: HEK293T cells stably expressing G16gust44
T2 sequence (Q8TE23 20-839): T1 sequence (Q8TE23 20-839)
T2 sequence (Q7RTX0 21-852): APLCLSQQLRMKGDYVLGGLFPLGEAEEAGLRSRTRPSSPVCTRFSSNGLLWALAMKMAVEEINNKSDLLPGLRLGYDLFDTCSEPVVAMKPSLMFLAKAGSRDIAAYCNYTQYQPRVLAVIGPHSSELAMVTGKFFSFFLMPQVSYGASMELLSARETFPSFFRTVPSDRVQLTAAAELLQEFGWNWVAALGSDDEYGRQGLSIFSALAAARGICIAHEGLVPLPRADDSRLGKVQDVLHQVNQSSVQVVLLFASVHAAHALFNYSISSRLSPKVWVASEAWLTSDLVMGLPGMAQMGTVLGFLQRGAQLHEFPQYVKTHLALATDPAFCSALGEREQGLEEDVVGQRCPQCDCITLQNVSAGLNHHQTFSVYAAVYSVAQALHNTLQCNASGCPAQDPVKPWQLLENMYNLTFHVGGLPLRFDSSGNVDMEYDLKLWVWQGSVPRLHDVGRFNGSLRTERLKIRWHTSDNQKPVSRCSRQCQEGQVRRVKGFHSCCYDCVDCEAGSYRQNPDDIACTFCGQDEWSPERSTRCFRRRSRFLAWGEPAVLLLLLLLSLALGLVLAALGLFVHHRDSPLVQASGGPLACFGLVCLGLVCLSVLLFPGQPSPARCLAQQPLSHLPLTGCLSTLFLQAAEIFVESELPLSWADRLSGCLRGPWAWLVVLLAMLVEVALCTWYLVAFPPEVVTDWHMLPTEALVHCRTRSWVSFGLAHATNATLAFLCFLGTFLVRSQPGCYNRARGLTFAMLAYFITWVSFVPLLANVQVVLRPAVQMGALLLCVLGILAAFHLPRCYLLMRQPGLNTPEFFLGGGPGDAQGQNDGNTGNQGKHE
Excerpt: as §1, §2, §3

T1R3 monomer = biological target: T3, T1R3 monomer (Homo sapiens, UniProt Q7RTX0); experiment: Fluo-4 calcium assay, HEK293T/G16gust44 cells transiently transfected with T1R3 monomer; format: cell-based; conditions: 50 μM perillartine, mean of six replicates
T3 construct: expressed in transfected cells; host or cells: HEK293T cells stably expressing G16gust44
T3 sequence (Q7RTX0 21-852): T2 sequence (Q7RTX0 21-852)
Excerpt: as §1, §2, §3

[2] = system: mock transfected cells expressing only the G16gust44 chimeric G-protein; experiment: Fluo-4 calcium assay, mock transfected cells expressing only G16gust44 (negative control cells); format: cell-based, human; conditions: 50 μM perillartine, mean of six replicates
Excerpt: as §2

T1R2 monomer [3] = biological target: T1, T1R2 monomer; experiment: Calcium flux assay (FLIPR), clonal cell lines stably expressing T1R2 and G16gust44; format: cell-based; conditions: 50 μM perillartine
Experimental: as §1
A human T1R2/pcDNA4-Zeocin construct was linearized by digesting 5 ug with Pvu II and then purified using the Wizard DNA Clean-Up System (Promega). The DNA was transfected using the Lipofectamine 2000 reagent into cells that already stably express the G16gust44 G-protein (formed as described in WO 2004/055048).
(§4) For results, see table below. The signal average of the experiment is given, as well as the standard deviation (STD) in RFU. Two clones were analysed. Non-transfected cells expressing G16gust44 only serve as a general negative control.

[4] = system: cells expressing G16gust44 only; experiment: Calcium flux assay (FLIPR), non-transfected cells expressing G16gust44 only; format: cell-based; conditions: 50 μM perillartine
Experimental: as §4

[5] = 50 μM perillartine, mean of six replicates

Row | Structure (SMILES) | calcium signal compared with negative controls (mock transfected cells) (T1R2 monomer [1]) | calcium signal intensity (T1R2/T1R3 dimer) | other results
1 | N[C@H](Cc1c[nH]c2ccccc12)C(=O)O [D-tryptophan] | not significantly above the signals observed for the negative controls | strong signals comparable to the signal intensity of perillartine | –
2 | COC(=O)[C@H](Cc1ccccc1)NC(=O)[C@@H](N)CC(=O)O [aspartame] (H-Asp-Phe-OMe) | not significantly above the signals observed for the negative controls | strong signals comparable to the signal intensity of perillartine | –
3 | C=C(C)[C@@H]1CC=C(/C=N/O)CC1 [perillartine] | – | – | SIGNAL AVERAGE (net increase in fluorescence over baseline) (T1R2 monomer [1]; [5]): 944.9 RFU; SIGNAL AVERAGE (net increase in fluorescence over baseline) (T1R3 monomer): 165.6 RFU; SIGNAL AVERAGE (net increase in fluorescence over baseline) (T1R2/T1R3 dimer; [5]): 1279.6 RFU; SIGNAL AVERAGE (net increase in fluorescence over baseline) [2]: 353.5 RFU; Signal average (T1R2 monomer [3]; T1R2/G16gust44 CLONE 2): 4336.25 RFU; Signal average (T1R2 monomer [3]; T1R2/G16gust44 CLONE 4): 5288.47 RFU; perillartine-dependent signal relative to negative control cells expressing only G16gust44 (T1R2 monomer [3]; clonal cell lines stably expressing T1R2 monomer): at least 10 fold; Signal average [4]: 368.71 RFU
4 | C=C1C[C@@]23CC[C@H]4[C@@](C)(CCC[C@@]4(C)C(=O)O[C@@H]4O[C@H](CO)[C@@H](O)[C@H](O)[C@H]4O)[C@@H]2CC[C@]1(O[C@@H]1O[C@H](CO)[C@@H](O)[C@H](O)[C@H]1O[C@@H]1O[C@H](CO)[C@@H](O)[C@H](O)[C@H]1O)C3 [stevioside] | not significantly above the signals observed for the negative controls | strong signals comparable to the signal intensity of perillartine | –
5 | OC[C@H]1O[C@H](O[C@]2(CCl)O[C@H](CCl)[C@@H](O)[C@@H]2O)[C@H](O)[C@@H](O)[C@H]1Cl [sucralose] | not significantly above the signals observed for the negative controls | strong signals comparable to the signal intensity of perillartine | –
